US20070071773A1, “Compositions and methods for the treatment and prophylaxis of infections caused by gram positive bacteria” (priority 2002, published 2007)

Tested on: JS95
Test: IL-8 proteolytic activity of supernatant of JS95 grown in the presence of SilCR
Format: cell-based, Group A Streptococcus (GAS)
Details: JS95 grown in the presence of SilCR (25 then 50 μg/ml); FIG. 15A
Procedure: […] was grown in the absence and presence of SilCR (50 μg/ml). IL-8 was incubated with the indicated supernatant fractions and then subjected to 18% SDS-PAGE. The separated protein bands were electro-transferred to a nitrocellulose membrane. Anti-IL-8 antibody and a secondary antibody conjugated to horseradish peroxidase were used to detect IL-8. The number of the lane represents incubation of IL-8 with: 1, DMEM+FCS (control); 2, JS95 supernatant; 3, JS95 supernatant grown in the presence of SilCR; 4, JS95 supernatant, pretreated with pefabloc SC; 5, supernatant of JS95 grown in the absence of SilCR, then 50 μg/ml of SilCR was added to the degradation assay.
15A The column numbers represent the ELISA results after incubation of IL-8 with: 1, DMEM+FCS (control); and the supernatants of: 2, JS95; 3, JS95 grown in the presence of SilCR; 4, JS95 pretreated with aprotenin; 5, JS95 pretreated with soybean trypsin inhibitor; 6, JS95 pretreated with benzamidine. The background of the ELISA assay (0.08±0.004) was subtracted from the shown results. The data represent the mean ± SD, of three separate experiments. […]
C. Proteolysis of chemokines was determined by ELISA and Dot-blot. IL-8 content was quantified by ELISA using the Quantikine kit for determination of human IL-8 (R&D Systems, Minneapolis, Minn.) according to the manufacturer's instructions.

DIFKLVIDHISMKARKK (SilCR peptide) [17 amino acid synthetic peptide, predicted mature form of the pheromone peptide encoded by the SilCR ORF; used at 70% or 90% purity]
IL-8 proteolytic activity of the strain: markedly reduced
